Measured values as given in patent publication US20230085307A1, “PYRIDAZINONE COMPOUND AND HERBICIDE” (NISSAN CHEMICAL CORPORATION, priority 2019, published 2023).

Legend:
[1] = tested on: barnyard grass; experiment: Test Example 5: herbicidal effect by foliage application, plastic box (Table 20, symbol H); type: in vivo, barnyard grass (Echinochloa crus-galli); details: foliage application
In short: (§1)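 Sow seeds spot-wise in sterilized diluvial soil; cover with ~1.5 cm soil. Grow 14 days in greenhouse, 25° C. to 30° C. Spray foliage with emulsion diluted to predetermined amount. Rate effect after 3 weeks.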

[2] = tested on: barnyard grass; experiment: Test Example 4: herbicidal effect by soil treatment (Table 19, symbol H); type: in vivo, barnyard grass (Echinochloa crus-galli)
In short: (§2)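 Soil-surface application: an emulsion agent diluted with water to the predetermined dose is sprayed uniformly over seeds lying under roughly 1.5 cm of sterilized diluvial soil. Boxes stay in a greenhouse at 25° C. to 30° C. Three weeks later, each species is graded on previously defined criteria.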

[3] = tested on: barnyard grass; experiment: Test Example 3: herbicidal effect by foliage application, Wagner pot (Table 18, symbol H); type: in vivo, barnyard grass (Echinochloa crus-galli)
In short: (§3)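 Plants were sown in alluvial soil held under 0.1–0.5 cm standing water and grown 14 days in a greenhouse at 25–30 °C. An emulsifiable formulation, water-diluted to the set dose, was then sprayed onto the foliage, and effects were scored three weeks later using previously defined criteria.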

[4] = tested on: Italian ryegrass; experiment: Test Example 5: herbicidal effect by foliage application, plastic box (Table 20, symbol K); type: in vivo, Italian ryegrass (Lolium multiflorum); details: foliage application
In short: as §1

[5] = tested on: Japanese bulrush; experiment: Test Example 1: herbicidal activity, application before weed generation under submerged conditions (Table 16, symbol B); type: in vivo, Japanese bulrush (Schoenoplectus juncoides)
In short: (§4)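 Submerged Wagner pots (alluvial soil, 4 cm water) sown with weed seeds and planted with 2.5-leaf rice seedlings; emulsifiable concentrate diluted in water applied to water surface on sowing day. Held in greenhouse at 25-30 °C; injury scored 0-5 by herbicidal rate after three weeks.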

[6] = tested on: wild oat; experiment: Test Example 5: herbicidal effect by foliage application, plastic box (Table 20, symbol I); type: in vivo, wild oat (Avena fatua); details: foliage application
In short: as §1

[7] = tested on: oval-leafed pondweed; experiment: Test Example 1: herbicidal activity, application before weed generation under submerged conditions (Table 16, symbol C); type: in vivo, oval-leafed pondweed (Monochoria vaginalis)
In short: as §4

[8] = tested on: velvetleaf; experiment: Test Example 4: herbicidal effect by soil treatment (Table 19, symbol M); type: in vivo, velvetleaf (Abutilon theophrasti)
In short: as §2

[9] = tested on: green foxtail; experiment: Test Example 5: herbicidal effect by foliage application, plastic box (Table 20, symbol G); type: in vivo, green foxtail (Setaria viridis); details: foliage application
In short: as §1

[10] = tested on: persian speedwell; experiment: Test Example 5: herbicidal effect by foliage application, plastic box (Table 20, symbol R); type: in vivo, Persian speedwell (Veronica persica); details: foliage application
In short: as §1

[11] = tested on: velvetleaf; experiment: Test Example 5: herbicidal effect by foliage application, plastic box (Table 20, symbol M); type: in vivo, velvetleaf (Abutilon theophrasti); details: foliage application
In short: as §1

[12] = tested on: windgrass; experiment: Test Example 5: herbicidal effect by foliage application, plastic box (Table 20, symbol L); type: in vivo, windgrass (Apera spica-venti); details: foliage application
In short: as §1

[13] = tested on: southern crabgrass; experiment: Test Example 4: herbicidal effect by soil treatment (Table 19, symbol F); type: in vivo, southern crabgrass (Digitaria ciliaris)
In short: as §2

[14] = tested on: green foxtail; experiment: Test Example 4: herbicidal effect by soil treatment (Table 19, symbol G); type: in vivo, green foxtail (Setaria viridis)
In short: as §2

[15] = tested on: windgrass; experiment: Test Example 4: herbicidal effect by soil treatment (Table 19, symbol L); type: in vivo, windgrass (Apera spica-venti)
In short: as §2

[16] = tested on: redroot pigweed; experiment: Test Example 5: herbicidal effect by foliage application, plastic box (Table 20, symbol N); type: in vivo, redroot pigweed (Amaranthus retroflexus); details: foliage application
In short: as §1

[17] = tested on: redroot pigweed; experiment: Test Example 4: herbicidal effect by soil treatment (Table 19, symbol N); type: in vivo, redroot pigweed (Amaranthus retroflexus)
In short: as §2

[18] = tested on: chickweed; experiment: Test Example 4: herbicidal effect by soil treatment (Table 19, symbol P); type: in vivo, common chickweed (Stellaria media)
In short: as §2

[19] = tested on: late watergrass; experiment: Test Example 1: herbicidal activity, application before weed generation under submerged conditions (Table 16, symbol A); type: in vivo, late watergrass (Echinochloa oryzicola)
In short: as §4

[20] = tested on: lambsquarters; experiment: Test Example 5: herbicidal effect by foliage application, plastic box (Table 20, symbol O); type: in vivo, lambsquarters (Chenopodium album); details: foliage application
In short: as §1

[21] = tested on: Italian ryegrass; experiment: Test Example 4: herbicidal effect by soil treatment (Table 19, symbol K); type: in vivo, Italian ryegrass (Lolium multiflorum)
In short: as §2

[22] = tested on: blackgrass; experiment: Test Example 4: herbicidal effect by soil treatment (Table 19, symbol J); type: in vivo, blackgrass (Alopecurus myosuroides)
In short: as §2

[23] = tested on: southern crabgrass; experiment: Test Example 5: herbicidal effect by foliage application, plastic box (Table 20, symbol F); type: in vivo, southern crabgrass (Digitaria ciliaris); details: foliage application
In short: as §1

[24] = tested on: wild oat; experiment: Test Example 4: herbicidal effect by soil treatment (Table 19, symbol I); type: in vivo, wild oat (Avena fatua)
In short: as §2

[25] = tested on: lambsquarters; experiment: Test Example 4: herbicidal effect by soil treatment (Table 19, symbol O); type: in vivo, lambsquarters (Chenopodium album)
In short: as §2

[26] = tested on: rice flat sedge; experiment: Test Example 3: herbicidal effect by foliage application, Wagner pot (Table 18, symbol E); type: in vivo, rice flat sedge (Cyperus iria)
In short: as §3

[27] = tested on: blackgrass; experiment: Test Example 5: herbicidal effect by foliage application, plastic box (Table 20, symbol J); type: in vivo, blackgrass (Alopecurus myosuroides); details: foliage application
In short: as §1

[28] = tested on: chickweed; experiment: Test Example 5: herbicidal effect by foliage application, plastic box (Table 20, symbol P); type: in vivo, common chickweed (Stellaria media); details: foliage application
In short: as §1

[29] = tested on: persian speedwell; experiment: Test Example 4: herbicidal effect by soil treatment (Table 19, symbol R); type: in vivo, Persian speedwell (Veronica persica)
In short: as §2

[30] = tested on: Chinese sprangletop; experiment: Test Example 3: herbicidal effect by foliage application, Wagner pot (Table 18, symbol D); type: in vivo, chinese sprangletop (Leptochloa chinensis)
In short: as §3

[31] = AAH 246 g/ha, three weeks after application
[32] = 269 g/ha, evaluated three weeks after application

## C=Cc1ccc(-c2sc3ccccc3c2-c2c(OC(=O)CCC)c(C)nn(C)c2=O)cc1 [1-128]
[1]; [31]
  H: barnyard grass, herbicidal effect: 1 (Herbicidal rate of 5% or more and less than 20%)
[2]; AAH 246 g/ha
  H: barnyard grass, herbicidal effect rating: 0 (Herbicidal rate of 5% or less (almost no effect))
[3]; 246 g/ha
  herbicidal effect on H (barnyard grass), rating 0-5: 4 (Herbicidal rate of 70% or more and less than 90%)
[4]; [31]
  K: Italian ryegrass, herbicidal effect: 4 (Herbicidal rate of 70% or more and less than 90%)
[5]; 246 g/ha applied herbicide
  Herbicidal effect on B: Japanese bulrush (grade 0-5): 5 (Herbicidal rate of 90% or more (almost completely withered))
[6]; [31]
  I: wild oat, herbicidal effect: 1 (Herbicidal rate of 5% or more and less than 20%)
[7]; 246 g/ha applied herbicide
  Herbicidal effect on C: oval-leafed pondweed (grade 0-5): 5 (Herbicidal rate of 90% or more (almost completely withered))
[8]; AAH 246 g/ha
  M: velvetleaf, herbicidal effect rating: 0 (Herbicidal rate of 5% or less (almost no effect))
[9]; [31]
  G: green foxtail, herbicidal effect: 0 (Herbicidal rate of 5% or less (almost no effect))
[10]; [31]
  R: persian speedwell, herbicidal effect: 5 (Herbicidal rate of 90% or more (almost completely withered))
[11]; [31]
  M: velvetleaf, herbicidal effect: 4 (Herbicidal rate of 70% or more and less than 90%)
[12]; [31]
  L: windgrass, herbicidal effect: 4 (Herbicidal rate of 70% or more and less than 90%)
[13]; AAH 246 g/ha
  F: southern crabgrass, herbicidal effect rating: 0 (Herbicidal rate of 5% or less (almost no effect))
[14]; AAH 246 g/ha
  G: green foxtail, herbicidal effect rating: 0 (Herbicidal rate of 5% or less (almost no effect))
[15]; AAH 246 g/ha
  L: windgrass, herbicidal effect rating: 0 (Herbicidal rate of 5% or less (almost no effect))
[16]; [31]
  N: redroot pigweed, herbicidal effect: 5 (Herbicidal rate of 90% or more (almost completely withered))
[17]; AAH 246 g/ha
  N: redroot pigweed, herbicidal effect rating: 4 (Herbicidal rate of 70% or more and less than 90%)
[18]; AAH 246 g/ha
  P: chickweed, herbicidal effect rating: 3 (Herbicidal rate of 40% or more and less than 70%)
[19]; 246 g/ha applied herbicide
  Herbicidal effect on A: late watergrass (grade 0-5): 0 (Herbicidal rate of 5% or less (almost no effect))
[20]; [31]
  O: lambsquarters, herbicidal effect: 4 (Herbicidal rate of 70% or more and less than 90%)
[21]; AAH 246 g/ha
  K: Italian ryegrass, herbicidal effect rating: 2 (Herbicidal rate of 20% or more and less than 40%)
[22]; AAH 246 g/ha
  J: blackgrass, herbicidal effect rating: 0 (Herbicidal rate of 5% or less (almost no effect))
[23]; [31]
  F: southern crabgrass, herbicidal effect: 0 (Herbicidal rate of 5% or less (almost no effect))
[24]; AAH 246 g/ha
  I: wild oat, herbicidal effect rating: 0 (Herbicidal rate of 5% or less (almost no effect))
[25]; AAH 246 g/ha
  O: lambsquarters, herbicidal effect rating: 0 (Herbicidal rate of 5% or less (almost no effect))
[26]; 246 g/ha
  herbicidal effect on E (rice flat sedge), rating 0-5: 3 (Herbicidal rate of 40% or more and less than 70%)
[27]; [31]
  J: blackgrass, herbicidal effect: 3 (Herbicidal rate of 40% or more and less than 70%)
[28]; [31]
  P: chickweed, herbicidal effect: 5 (Herbicidal rate of 90% or more (almost completely withered))
[29]; AAH 246 g/ha
  R: persian speedwell, herbicidal effect rating: 3 (Herbicidal rate of 40% or more and less than 70%)
[30]; 246 g/ha
  herbicidal effect on D (Chinese sprangletop), rating 0-5: 5 (Herbicidal rate of 90% or more (almost completely withered))

## COCCOCOc1c(C)nn(C)c(=O)c1-c1c(-c2ccc(OCCSC)cc2)sc2ccc(F)cc12 [2-059]
[1]; [32]
  herbicidal effect on H: barnyard grass: 5 (Herbicidal rate of 90% or more (almost completely withered))
[2]; 269 g/ha
  herbicidal effect rating, H: barnyard grass: 1 (Herbicidal rate of 5% or more and less than 20%)
[3]; 269 g/ha
  herbicidal effect on H (barnyard grass), rating 0-5: 5 (Herbicidal rate of 90% or more (almost completely withered))
[4]; [32]
  herbicidal effect on K: Italian ryegrass: 5 (Herbicidal rate of 90% or more (almost completely withered))
[5]; 269 g/ha applied herbicide
  Herbicidal effect on B: Japanese bulrush (grade 0-5): 3 (Herbicidal rate of 40% or more and less than 70%)
[6]; [32]
  herbicidal effect on I: wild oat: 4 (Herbicidal rate of 70% or more and less than 90%)
[7]; 269 g/ha applied herbicide
  Herbicidal effect on C: oval-leafed pondweed (grade 0-5): 4 (Herbicidal rate of 70% or more and less than 90%)
[8]; 269 g/ha
  herbicidal effect rating, M: velvetleaf: 1 (Herbicidal rate of 5% or more and less than 20%)
[9]; [32]
  herbicidal effect on G: green foxtail: 5 (Herbicidal rate of 90% or more (almost completely withered))
[10]; [32]
  herbicidal effect on R: persian speedwell: 5 (Herbicidal rate of 90% or more (almost completely withered))
[11]; [32]
  herbicidal effect on M: velvetleaf: 5 (Herbicidal rate of 90% or more (almost completely withered))
[12]; [32]
  herbicidal effect on L: windgrass: 5 (Herbicidal rate of 90% or more (almost completely withered))
[13]; 269 g/ha
  herbicidal effect rating, F: southern crabgrass: 4 (Herbicidal rate of 70% or more and less than 90%)
[14]; 269 g/ha
  herbicidal effect rating, G: green foxtail: 5 (Herbicidal rate of 90% or more (almost completely withered))
[15]; 269 g/ha
  herbicidal effect rating, L: windgrass: 4 (Herbicidal rate of 70% or more and less than 90%)
[16]; [32]
  herbicidal effect on N: redroot pigweed: 5 (Herbicidal rate of 90% or more (almost completely withered))
[17]; 269 g/ha
  herbicidal effect rating, N: redroot pigweed: 5 (Herbicidal rate of 90% or more (almost completely withered))
[18]; 269 g/ha
  herbicidal effect rating, P: chickweed: 4 (Herbicidal rate of 70% or more and less than 90%)
[19]; 269 g/ha applied herbicide
  Herbicidal effect on A: late watergrass (grade 0-5): 3 (Herbicidal rate of 40% or more and less than 70%)
[20]; [32]
  herbicidal effect on O: lambsquarters: 5 (Herbicidal rate of 90% or more (almost completely withered))
[21]; 269 g/ha
  herbicidal effect rating, K: Italian ryegrass: 4 (Herbicidal rate of 70% or more and less than 90%)
[22]; 269 g/ha
  herbicidal effect rating, J: blackgrass: 0 (Herbicidal rate of 5% or less (almost no effect))
[23]; [32]
  herbicidal effect on F: southern crabgrass: 5 (Herbicidal rate of 90% or more (almost completely withered))
[24]; 269 g/ha
  herbicidal effect rating, I: wild oat: 0 (Herbicidal rate of 5% or less (almost no effect))
[25]; 269 g/ha
  herbicidal effect rating, O: lambsquarters: 5 (Herbicidal rate of 90% or more (almost completely withered))
[26]; 269 g/ha
  herbicidal effect on E (rice flat sedge), rating 0-5: 5 (Herbicidal rate of 90% or more (almost completely withered))
[27]; [32]
  herbicidal effect on J: blackgrass: 5 (Herbicidal rate of 90% or more (almost completely withered))
[28]; [32]
  herbicidal effect on P: chickweed: 5 (Herbicidal rate of 90% or more (almost completely withered))
[29]; 269 g/ha
  herbicidal effect rating, R: persian speedwell: 5 (Herbicidal rate of 90% or more (almost completely withered))
[30]; 269 g/ha
  herbicidal effect on D (Chinese sprangletop), rating 0-5: 5 (Herbicidal rate of 90% or more (almost completely withered))
